Results taken from PubChem BioAssay AID2060884 (Molecular Pharmacology Branch, DTP, NCI, 2025).

System: NCI-H929 complex spheroids, viability % test/control
Assay: Anticancer human tumor NCI-H929 cell line growth inhibition [RAS];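 also: compound exposure lasted seven days before viability was read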
Conditions: for IC50: curve of first compound; for viability, T/C: stronger effect = lower value
Source text: RAS pathway inhibitors in Combinations in Complex Spheroids
A high-throughput screen of multi-cell type tumor spheroids was designed to identify active combinations of RAS pathway inhibitors and targeted small molecules. Complex spheroids include a stromal component modeled by human endothelial cells (HUVEC) and fibroblasts modeled by human mesenchymal stem cells (MSCs). The concentration ranges selected for each drug and investigational agent were based upon clinically achievable concentrations if the clinical Cmax of the agent was known.
Compounds. The drugs and investigational agents: abemaciclib (NSC768073), cobimetinib (NSC768068), divarasib (GDC6063, NSC841802), docetaxel (NSC628503), GDC-1971 (RLY-1971, NSC841576), gemcitabine (NSC613327), inavolisib (NSC800729), ipatasertib (NSC767898), KB-0742 (NSC834161), MRTX-1133 (NSC836407), osimertinib (NSC779217), RMC-4630 (NSC839698), RMC-6236 (NSC851965), RMC-6291 (NSC852671), Ro-3306 (NSC812927), sapanisertib (NSC764658), SN-38 (NSC673596), staurosporine (NSC755774), SY5609 (NSC837396), and tovorafenib (DAY101, NSC766906), were obtained from the National Cancer Institute (NCI) Developmental Therapeutics Program Chemical Repository. The FDA-approved anticancer drug set is available from the NCI Developmental Therapeutics Program. […] The stock solutions were prepared in dimethyl sulfoxide (DMSO, Sigma-Aldrich, St. Louis, MO, cat. D2650) at 800-fold the tested concentration and stored at -70 degrees C prior to their use. All drugs and investigational agents were tested over a range starting from a high concentration at or near the clinical Cmax and decreasing in half-log increments. If the clinical Cmax for an agent had not been determined, the highest concentration tested was 10 microM.
Cell Culture. All cells were maintained in an incubator at 37 degrees C and 5% CO2 with 95% humidity. The PDC lines were cultured according to standard operating procedures established by the NCI PDMR. All PDCs were thawed and cultured in Matrigel-coated flasks prepared with a working solution of 1X Ham's F-12 nutrient mix, without supplementation (Invitrogen, Waltham, MA, cat. 11765054), 100 U/mL penicillin-streptomycin (Invitrogen, cat. 15140122), and 2.5% Matrigel (Corning Inc., Corning, NY, cat. 354248) for the first three passages. The 362531-283-R-J2-PDC and 782815-120-R-J1-PDC lines were cultured in 6C/Colon 1B media, which includes advanced DMEM/F-12 (Thermo Fisher Scientific, cat. 12634028), 10 mM HEPES (Thermo Fisher Scientific, cat. 15630080), 1X GlutaMAX supplement (Thermo Fisher Scientific, cat. 35050061), 0.1 mg/mL primocin (InvivoGen, San Diego, CA, cat. ant-pm-2), 10% defined fetal bovine serum, heat inactivated (HyClone Laboratories Inc., Logan, UT, cat. SH30070.03HI), 50% L-WRN conditioned media (ATCC, cat. CRL-3276), 1.25 mM N-Acetyl-L-cysteine (Sigma-Aldrich, cat. A9165), 10 mM nicotinamide (Sigma-Aldrich, cat. N0636), 1X B-27 supplement (Thermo Fisher Scientific, cat. 17504044), 1X N-2 supplement (Thermo Fisher Scientific, cat. 17502048), 50 ng/mL human EGF (Thermo Fisher Scientific, cat. PHG0311), and 10 microM Y-27632 dihydrochloride (Tocris Bioscience, cat. 1254). The K12877-001-R-J1-PDC line was cultured in 6I media, which includes all 6C/Colon 1B media plus 10 ng/mL human FGF-10 (PeproTech, cat. 100-26), 1 ng/mL human FGF-2 (PeproTech, cat. 100-18B), 1 µM prostaglandin E2 (Tocris Bioscience, cat. 2296), […] hydrocortisone (Sigma-Aldrich, cat. H4001), and […] bovine insulin (Sigma-Aldrich, cat. I6634). The K86415-001-R-J1-PDC line was cultured in 6D media, which includes all 6C/Colon 1B media components minus the L-WRN conditioned media. The 485176-168-R4-J1-PDC was cultured in PANC media, which includes all 6C/Colon 1B media plus 100 ng/mL human FGF-10 (PeproTech, cat. 100-26), 500 nM SB-431542 (Selleckchem, cat. S1067), and 10 nM gastrin (Tocris Bioscience, cat. 3006). […]

[1] = second compound 0.0316 µM, first compound 0.0316 µM
[2] = second compound 0.0316 µM, first compound 0.1 µM
[3] = second compound 0.0316 µM, first compound 0.316 µM
[4] = second compound 0.0316 µM, first compound 1 µM
[5] = second compound 0.1 µM, first compound 0.0316 µM
[6] = second compound 0.1 µM, first compound 0.1 µM
[7] = second compound 0.1 µM, first compound 0.316 µM
[8] = second compound 0.1 µM, first compound 1 µM
[9] = second compound 0.316 µM, first compound 0.0316 µM
[10] = second compound 0.316 µM, first compound 0.1 µM
[11] = second compound 0.316 µM, first compound 0.316 µM
[12] = second compound 0.316 µM, first compound 1 µM
[13] = second compound 1 µM, first compound 0.0316 µM
[14] = second compound 1 µM, first compound 0.1 µM
[15] = second compound 1 µM, first compound 0.316 µM
[16] = second compound 1 µM, first compound 1 µM
[17] = second compound 3.16 µM, first compound 0.0316 µM
[18] = second compound 3.16 µM, first compound 0.1 µM
[19] = second compound 3.16 µM, first compound 0.316 µM
[20] = second compound 3.16 µM, first compound 1 µM
[21] = second compound 10 µM, first compound 0.0316 µM
[22] = second compound 10 µM, first compound 0.1 µM
[23] = second compound 10 µM, first compound 0.316 µM
[24] = second compound 10 µM, first compound 1 µM

For `CC1(O)CCCC1n1c(=O)c(C(F)F)cc2cnc(NC3CCN(S(C)(=O)=O)CC3)nc21` (centres undefined) + C#Cc1c(F)ccc2cc(O)cc(-c3ncc4c(N5CC6CCC(C5)N6)nc(OCC56CCCN5CC(F)C6)nc4c3F)c12, which IC50 (second compound 0.0316 µM) is on record?
The IC50 was 190 nM.

And the IC50 (second compound 0.1 µM)?
Its IC50 is 191 nM.

And the IC50 (second compound 0.316 µM)?
Its IC50 is 194 nM.

And the IC50 (second compound 1 µM)?
Its IC50 is 193 nM.

And the IC50 (second compound 3.16 µM)?
The IC50 was 183 nM.

And the IC50 (second compound 10 µM)?
Its IC50 is 105 nM.

What about the viability, T/C [1] of the same molecule?
The viability, T/C was 112%.

What about the viability, T/C [2] of the same molecule?
Its viability, T/C is 106%.

And the viability, T/C [3]?
Its viability, T/C is 5.76%.

And the viability, T/C [4]?
Its viability, T/C is 10.1%.

And the viability, T/C (second compound 0.0316 µM, first compound 3.16 µM)?
The viability, T/C was 3.99%.

And the viability, T/C (second compound 0.0316 µM, first compound 10 µM)?
Its viability, T/C is 0.89%.

What about the viability, T/C [5] of the same molecule?
The viability, T/C was 104%.

And the viability, T/C [6]?
The viability, T/C was 108%.

What about the viability, T/C [7] of the same molecule?
The viability, T/C was 5.96%.

What about the viability, T/C [8] of the same molecule?
The viability, T/C was 11.6%.

What about the viability, T/C (second compound 0.1 µM, first compound 3.16 µM) of the same molecule?
The viability, T/C was 3.51%.

What about the viability, T/C (second compound 0.1 µM, first compound 10 µM) of the same molecule?
The viability, T/C was 0.63%.

What about the viability, T/C [9] of the same molecule?
Its viability, T/C is 105%.

What about the viability, T/C [10] of the same molecule?
Its viability, T/C is 112%.

What about the viability, T/C [11] of the same molecule?
The viability, T/C was 6.91%.

What about the viability, T/C [12] of the same molecule?
The viability, T/C was 13.5%.

What about the viability, T/C (second compound 0.316 µM, first compound 3.16 µM) of the same molecule?
Its viability, T/C is 4.01%.

And the viability, T/C (second compound 0.316 µM, first compound 10 µM)?
Its viability, T/C is 0.21%.

What about the viability, T/C [13] of the same molecule?
The viability, T/C was 107%.

And the viability, T/C [14]?
The viability, T/C was 109%.

What about the viability, T/C [15] of the same molecule?
The viability, T/C was 6.21%.

What about the viability, T/C [16] of the same molecule?
The viability, T/C was 11.2%.

What about the viability, T/C (second compound 1 µM, first compound 3.16 µM) of the same molecule?
Its viability, T/C is 3.72%.

And the viability, T/C (second compound 1 µM, first compound 10 µM)?
Its viability, T/C is 0.45%.

What about the viability, T/C [17] of the same molecule?
Its viability, T/C is 114%.

And the viability, T/C [18]?
The viability, T/C was 99%.

What about the viability, T/C [19] of the same molecule?
The viability, T/C was 6%.

What about the viability, T/C [20] of the same molecule?
Its viability, T/C is 12.5%.

And the viability, T/C (second compound 3.16 µM, first compound 3.16 µM)?
The viability, T/C was 2.73%.

And the viability, T/C (second compound 3.16 µM, first compound 10 µM)?
The viability, T/C was 0.21%.

And the viability, T/C [21]?
The viability, T/C was 97.9%.

What about the viability, T/C [22] of the same molecule?
Its viability, T/C is 51.8%.

And the viability, T/C [23]?
Its viability, T/C is 10.6%.

And the viability, T/C [24]?
The viability, T/C was 11.6%.

What about the viability, T/C (second compound 10 µM, first compound 3.16 µM) of the same molecule?
The viability, T/C was 3.3%.

And the viability, T/C (second compound 10 µM, first compound 10 µM)?
Its viability, T/C is 0.45%.

Which results are given for `CCN1CCN(Cc2ccc(Nc3ncc(F)c(-c4cc(F)c5nc(C)n(C(C)C)c5c4)n3)nc2)CC1` + C#Cc1c(F)ccc2cc(O)cc(-c3ncc4c(N5CC6CCC(C5)N6)nc(OCC56CCCN5CC(F)C6)nc4c3F)c12?
IC50 (second compound 0.0316 µM): > 1000 nM; IC50 (second compound 0.1 µM): > 1000 nM; IC50 (second compound 0.316 µM): > 1000 nM; IC50 (second compound 1 µM): > 1000 nM; IC50 (second compound 3.16 µM): > 1000 nM; IC50 (second compound 10 µM): > 1000 nM; viability, T/C (second compound 0.0316 µM, first compound 0.00316 µM): 101%; viability, T/C (second compound 0.0316 µM, first compound 0.01 µM): 102%; viability, T/C [1]: 108%; viability, T/C [2]: 106%; viability, T/C [3]: 120%; viability, T/C [4]: 107%; viability, T/C (second compound 0.1 µM, first compound 0.00316 µM): 92.2%; viability, T/C (second compound 0.1 µM, first compound 0.01 µM): 99.1%; viability, T/C [5]: 103%; viability, T/C [6]: 107%; viability, T/C [7]: 118%; viability, T/C [8]: 110%; viability, T/C (second compound 0.316 µM, first compound 0.00316 µM): 96.6%; viability, T/C (second compound 0.316 µM, first compound 0.01 µM): 100%; viability, T/C [9]: 103%; viability, T/C [10]: 113%; viability, T/C [11]: 120%; viability, T/C [12]: 115%; viability, T/C (second compound 1 µM, first compound 0.00316 µM): 93.2%; viability, T/C (second compound 1 µM, first compound 0.01 µM): 102%; viability, T/C [13]: 109%; viability, T/C [14]: 113%; viability, T/C [15]: 117%; viability, T/C [16]: 112%; viability, T/C (second compound 3.16 µM, first compound 0.00316 µM): 97.8%; viability, T/C (second compound 3.16 µM, first compound 0.01 µM): 100%; viability, T/C [17]: 104%; viability, T/C [18]: 112%; viability, T/C [19]: 120%; viability, T/C [20]: 115%; viability, T/C (second compound 10 µM, first compound 0.00316 µM): 98.5%; viability, T/C (second compound 10 µM, first compound 0.01 µM): 100%; viability, T/C [21]: 99.2%; viability, T/C [22]: 109%; viability, T/C [23]: 118%; viability, T/C [24]: 57.3%
